# Laboratory results as given in patent US9555038B2, “Heterocycle-substituted tetracyclic compounds and methods of use thereof for the treatment of viral diseases” (Merck Sharp & Dohme Corp., priority 2013, dated 2017).
# Where two headings read alike, the source gives them in different places.
# Columns and labels:
# [1] = system: HCV replicon 1AY93H; assay: Cell-based HCV Replicon Assay A, replicon 1AY93H
# How it was run: (§1)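 2000 cells/well; 10 serial dilutions, top concentration 333.3 nM to 1.667 nM; 0.5% DMSO, 5% FBS; 3 days; lysis; multiplex TaqMan RT-PCR (NS5B/Neo plus cyclophilin), RNA from linear Ct standard curves.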
# [2] = system: HCV replicon 1A; assay: Cell-based HCV Replicon Assay A, replicon 1A
# How it was run: as §1
# [3] = system: HCV replicon 1B; assay: Cell-based HCV Replicon Assay B, replicon 1B
# How it was run: (§2)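 EC50 defined as the drug concentration giving a CT increase of 1 above projected baseline, from real-time RT-PCR of replicon RNA using genotype-specific primers and probes. Cells were seeded in 5% FBS, dosed after 24 h and incubated 3 days before lysis.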
# [4] = system: HCV replicon 2B; assay: Cell-based HCV Replicon Assay A, replicon 2B
# How it was run: as §1
# [5] = system: HCV replicon 1AQ30D; assay: Cell-based HCV Replicon Assay B, replicon 1AQ30D
# How it was run: as §2
# [6] = read-out: 1A Y93H IC50, replicon 1AY93H
# [7] = read-out: 1A Q30D IC50, replicon 1AQ30D
# [8] = Hepatitis C virus, read-out: 1A Q30D IC50 (nM), replicon 1AQ30D
# [9] = replicon 1AY93H, read-out: 1A Y93H IC50
# [10] = replicon 1AQ30D, read-out: 1A Q30D IC50
SMILES,"IC50 [1, 6] [nM]",IC50 [2] [nM],IC50 [3] [nM],"IC50 ([4]; read-out: 2B IC50, replicon 2B) [nM]","IC50 [5, 7] [nM]",IC50 ([2]; Hepatitis C virus) [nM],IC50 ([3]; Hepatitis C virus) [nM],"IC50 [5, 8] [nM]","IC50 [1, 9] [nM]","IC50 ([4]; replicon 2B, read-out: 2B IC50) [nM]","IC50 [5, 10] [nM]","IC50 ([1]; Hepatitis C virus, read-out: 1A Y93H IC50 (nM), replicon 1AY93H) [nM]"
"COC(=O)NC(C(=O)N1[C@@H]2C[C@@H]2C[C@H]1c1ncc(-c2ccc3c(c2)cc2n3C(c3cnc(C4(C)CC4)s3)Oc3cc(-c4cnc([C@@H]5CCCN5C(=O)[C@@H](NC(=O)OC)C(C)C)[nH]4)cc(F)c3-2)[nH]1)C1CCOC(C)(C)C1 (single isomer, unassigned) [Compound 468]",0.155,0.0033,0.0029,0.234,1.23,–,–,–,–,–,–,–
"COC(=O)NC(C(=O)N1CCC[C@H]1c1ncc(-c2ccc3c(c2)cc2n3C(c3cnc(C4(C)CCCC4)s3)Oc3cc(-c4cnc([C@@H]5CCCN5C(=O)[C@@H](NC(=O)OC)C(C)C)[nH]4)cc(F)c3-2)[nH]1)C1C[C@@H](C)O[C@@H](C)C1 (single isomer, unassigned) [Compound 469]",0.002,–,–,0.005,–,0.003,0.0034,0.019,–,–,–,–
"COC(=O)NC(C(=O)N1CCC[C@H]1c1ncc(-c2ccc3c(c2)cc2n3C(c3cnc(C4(C)CCCC4)s3)Oc3cc(-c4cnc([C@@H]5CCCN5C(=O)[C@@H](NC(=O)OC)C(C)C)[nH]4)cc(F)c3-2)[nH]1)C1CCOC(C)(C)C1 (single isomer, unassigned) [Compound 471]",0.003,0.0028,0.0035,0.004,0.013,–,–,–,–,–,–,–
"COC(=O)NC(C(=O)N1CCC[C@H]1c1ncc(-c2ccc3c(c2)cc2n3C(c3cnc(C4(C)CCCC4)s3)Oc3cc(-c4cnc([C@@H]5CCCN5C(=O)[C@@H](NC(=O)OC)C(C)C)[nH]4)cc(F)c3-2)[nH]1)C1CCOC(C)(C)C1 (single isomer, unassigned) [Compound 472]",0.555,0.0021,0.0036,0.15,2.7,–,–,–,–,–,–,–
"COC(=O)NC(C(=O)N1[C@@H]2C[C@@H]2C[C@H]1c1ncc(-c2ccc3c(c2)cc2n3C(c3cnc(C4(C)CCCC4)s3)Oc3cc(-c4cnc([C@@H]5CCCN5C(=O)[C@@H](NC(=O)OC)C(C)C)[nH]4)cc(F)c3-2)[nH]1)C1C[C@@H](C)O[C@@H](C)C1 (single isomer, unassigned) [Compound 473]",0.002,–,–,0.01,–,0.0026,0.0028,0.011,–,–,–,–
"COC(=O)NC(C(=O)N1[C@@H]2C[C@@H]2C[C@H]1c1ncc(-c2ccc3c(c2)cc2n3C(c3cnc(C4(C)CCCC4)s3)Oc3cc(-c4cnc([C@@H]5CCCN5C(=O)[C@@H](NC(=O)OC)C(C)C)[nH]4)cc(F)c3-2)[nH]1)C1CCOC(C)(C)C1 (single isomer, unassigned) [Compound 475]",0.001,0.0024,–,0.008,–,–,0.0039,0.016,–,–,–,–
"COC(=O)NC(C(=O)N1[C@@H]2C[C@@H]2C[C@H]1c1ncc(-c2ccc3c(c2)cc2n3C(c3cnc(C4(C)CCCC4)s3)Oc3cc(-c4cnc([C@@H]5CCCN5C(=O)[C@@H](NC(=O)OC)C(C)C)[nH]4)cc(F)c3-2)[nH]1)C1CCOC(C)(C)C1 (single isomer, unassigned) [Compound 477]",0.003,0.0032,0.0037,0.008,0.009,–,–,–,–,–,–,–
"CCCOCc1ncc(C2Oc3cc(-c4cnc([C@@H]5CCCN5C(=O)[C@@H](NC(=O)OC)C(C)C)[nH]4)cc(F)c3-c3cc4cc(-c5cnc([C@@H]6CCCN6C(=O)[C@@H](NC(=O)OC)C(C)C)[nH]5)ccc4n32)s1 (single isomer, unassigned) [Compound 492]",0.03,0.0028,0.0029,0.146,0.535,–,–,–,–,–,–,–
"CCCOCc1ncc(C2Oc3cc(-c4cnc([C@@H]5CCCN5C(=O)[C@@H](NC(=O)OC)C(C)C)[nH]4)cc(F)c3-c3cc4cc(-c5cnc([C@@H]6CCCN6C(=O)[C@@H](NC(=O)OC)C(C)C)[nH]5)ccc4n32)s1 (single isomer, unassigned) [Compound 499]",0.223,0.0069,0.0088,0.622,1.09,–,–,–,–,–,–,–
"CCCOCc1ncc(C2Oc3cc(-c4cnc([C@@H]5CCCN5C(=O)[C@@H](NC(=O)OC)C(C)C)[nH]4)cc(F)c3-c3cc4cc(-c5cnc([C@@H]6CCCN6C(=O)[C@@H](NC(=O)OC)C(C)C)[nH]5)ccc4n32)s1 (single isomer, unassigned) [Compound 500]",7.79,0.0225,0.0184,1.67,16.7,–,–,–,–,–,–,–
"COC(=O)N[C@H](C(=O)N1CCC[C@H]1c1ncc(-c2cc(F)c3c(c2)OC(c2cnc(C4(C)CC4)s2)n2c-3cc3cc(-c4cnc([C@@H]5CCCN5C(=O)[C@@H](NC(=O)OC)C(C)C)[nH]4)ccc32)[nH]1)C(C)C (single isomer, unassigned) [Compound 511]",0.049,–,0.0087,0.095,–,0.0097,–,0.847,–,–,–,–
"COC(=O)N[C@H](C(=O)N1CCC[C@H]1c1ncc(-c2cc(F)c3c(c2)OC(c2cnc(CC(C)C)s2)n2c-3cc3cc(-c4cnc([C@@H]5CCCN5C(=O)[C@@H](NC(=O)OC)C(C)C)[nH]4)ccc32)[nH]1)C(C)C (single isomer, unassigned) [Compound 514]",–,0.0022,0.003,–,–,–,–,–,0.012,0.035,0.174,–
"COC(=O)N[C@H](C(=O)N1CCC[C@H]1c1ncc(-c2cc(F)c3c(c2)OC(c2cnc(C4CC4)s2)n2c-3cc3cc(-c4cnc([C@@H]5CC6(C)CC6N5C(=O)[C@@H](NC(=O)OC)C(C)C)[nH]4)ccc32)[nH]1)C(C)C (single isomer, unassigned) [Compound 518]",–,0.0025,0.0024,–,–,–,–,–,0.016,0.015,0.099,–
"COC(=O)N[C@H](C(=O)N1CCC[C@H]1c1ncc(-c2cc(F)c3c(c2)OC(c2cnc(C4CC4)s2)n2c-3cc3cc(-c4cnc([C@@H]5CC6(C)CC6N5C(=O)[C@@H](NC(=O)OC)C(C)C)[nH]4)ccc32)[nH]1)C(C)C (single isomer, unassigned) [Compound 519]",–,0.0031,0.0021,–,–,–,–,–,0.669,0.598,0.951,–
"COC(=O)N[C@H](C(=O)N1CCC[C@H]1c1ncc(-c2cc(F)c3c(c2)OC(c2cnc(CC(C)(C)C)s2)n2c-3cc3cc(-c4cnc([C@@H]5CCCN5C(=O)[C@@H](NC(=O)OC)C(C)C)[nH]4)ccc32)[nH]1)C(C)C (single isomer, unassigned) [Compound 522]",–,0.0014,0.001,–,–,–,–,–,0.011,0.015,0.163,–
"COC(=O)N[C@H](C(=O)N1CCC[C@H]1c1ncc(-c2cc(F)c3c(c2)OC(c2cnc(C4CCOCC4)s2)n2c-3cc3cc(-c4cnc([C@@H]5CCCN5C(=O)[C@@H](NC(=O)OC)C(C)C)[nH]4)ccc32)[nH]1)C(C)C (single isomer, unassigned) [Compound 531]",0.022,–,–,0.056,–,0.0025,0.0038,0.328,–,–,–,–
"COC(=O)N[C@H](C(=O)N1CCC[C@H]1c1ncc(-c2cc(F)c3c(c2)OC(c2cnc(Nc4ccc(F)cc4)s2)n2c-3cc3cc(-c4cnc([C@@H]5CCCN5C(=O)[C@@H](NC(=O)OC)C(C)C)[nH]4)ccc32)[nH]1)C(C)C (single isomer, unassigned) [Compound 534]",–,–,–,0.03,–,0.0024,0.003,0.267,–,–,–,0.094
